Test [1] relates to FPR1. Kind of test: Ligand binding assay with FITC-RI-3 on primary EOC cells. The arrangement: species or system human. The settings on record: for prevention of FITC-RI-3 binding by unlabeled peptide: primary EOC cells, 100 nM peptide pre-incubated 60 min at 4 °C, then 10 nM FITC-RI-3 60 min at 4 °C, three experiments. As for the experimental part: EOC cells were pre-incubated with diluents or the indicated unlabeled peptides for 60 min at 4 °C (to avoid internalization), extensively rinsed with phosphate buffer saline (PBS), exposed to 10 nM FITC-RI-3 diluted in PBS, for additional 60 min at 4 °C and again rinsed with PBS. Quantification of cell associated fluorescence was assessed by reading cells with the fluorescence plate reader Victor 3. The experiments were performed three times in duplicate.

Test [2] has as its system FPR1. Kind of test: Agonist-dependent FPR1 internalization in EOC cells (confocal microscopy). It is filed as cell-based, human. The conditions noted are these: primary EOC cells, 10 nM fluorescent peptide, 30 min at 37 °C. As for the experimental part: Cells (2 × 10^4/sample) were seeded on glass coverslips and cultured for 24 h in growth medium. Then, slides were washed with PBS, fixed with 2.5% formaldehyde in PBS for 10 min at 4 °C and incubated for 1 h at 4 °C with 2 μg/mL R4 anti-uPAR mAb or 1:100 rabbit anti-FPR1 Ab (#113531Ab, Abcam). Then, 1:700 goat Alexa Fluor 488 anti-rabbit IgG, or rabbit Alexa Fluor 488-conjugated F(ab’)2 fragment of anti-mouse IgG (Molecular Probes) were applied to slides at 23 °C for 40 min. Nuclear staining was performed with 4-6-diamidino-2-phenylindole dye (DAPI). To analyze agonist-dependent FPR1 internalization, cells grown on glass slides were exposed to 10 nM FITC-fMLF or 10 nM FITC-RI-3 diluted in serum-free DMEM for 30 min at 37 °C as described. After extensive washing with PBS, coverslips were mounted using 20% (w/v) mowiol, visualized with the 510 META-LSM confocal microscope (Carl Zeiss).

The next test has as its system cell migration. The settings on record: FITC-RI-3, compared with non-fluorescent peptide; ref [38]; cited from earlier work. An excerpt:
In order to obtain primary cultures of EOC cells, representative fragments of tissue samples were fragmented and cells recovered, as described in the Methods. By enzymatic digestion of a HGSC tissue sample (patient #5), a primary cell culture expressing high levels of both uPAR and FPR1 on cell surface as shown by IHC, was obtained (Figs. 4 and 5a). Subsequent sub-cloning of isolated cell clusters (Fig. 5b) followed by five passages allowed us to obtain an adherent, homogeneous, CD326 positive cell population. These EOC cells express a considerable amount of both uPAR and FPR1 as shown by West ...

Test [3] deals with cell migration and ECM attachment. The conditions noted are these: independently of the uPA catalytic activity; ref [14], [24]–[26]; cited from earlier work. From the text: Ovarian cancer cells detach from the primary tumor and float in the ascitic fluid as single cells or multicellular, chemo-resistant spheroids. Then, floating cancer cells must resist anoikis triggered by lack of attachment to the mesothelium to evade clearance through the peritoneal lymphatics.

Another test concerns vitronectin receptor. Set-up: method as in PMID 15866865, PMID 20880257. The conditions noted are these: inside-out mechanism involving PKC, AKT and MAPK; ref [26], [28]; cited from earlier work.
The subject of test [4] is SKOV-3 cells. The test is described as follows: Adhesion kinetic of SKOV-3 cells onto Vn monitored in real time (xCELLigence). It is filed as cell-based, Human. The conditions noted are these: SKOV-3 pre-exposed to 100 nM peptide, 2 h, cell index, quadruplicate representative of 3 replicates. The protocol: This assay was performed using E-16-well plates and the xCELLigence Real Time Cell Analysis technology. Bottom wells were coated with serum-free medium, 5 μg mL Vn, 5 μg mL Fn, 5 μg mL Lm or 15 μg mL Coll diluted in serum-free medium prior to seeding cells (1 × 10^4 cells/well) suspended in serum-free medium. Cells that adhere to the bottom of plates cause impedance changes which are proportional to the number of cells. The impedance value of each well was automatically monitored in real-time for at least 2 h and expressed as a cell index value. The experiments were performed three times in quadruplicate.

The test system of test [5] is SKOV-3 cells. Kind of test: Adhesion of SKOV-3 cells onto extracellular matrix proteins (24-well plates, cell counting). It is filed as cell-based, Human. The settings on record: SKOV-3 pre-incubated with 100 nM peptide 30 min at 37 °C, 2 h; for cell adhesion onto Coll, Fn or Lm after desensitization: collagen, fibronectin, laminin; for cell adhesion onto Vn after desensitization: vitronectin, means ± SD of three independent experiments. As for the experimental part: Adhesion assays were performed using 24 multi-well plates coated with 1% BSA, 5 μg mL vitronectin (Vn), 5 μg mL fibronectin (Fn), 5 μg mL laminin (Lm) or 15 μg mL collagen (Coll) diluted in serum-free medium. Sub-confluent cells were harvested by a mild trypsinization, incubated with 10% FBS / DMEM for 1 h at 37 °C, 5% CO2, acid treated with a buffer containing 50 mM glycin-HC1, 0.1 M NaCl, pH 3 for 4 min at 22 °C, to remove receptor-bound ligands, and counted. Viable cells (2 × 10^5 cells per well) were plated in serum-free medium, in the absence or presence of 2 μg/mL R3 mAb recognizing the DI uPAR domain, 2 μg/mL399 anti-uPAR (American Diagnostica), 2 μg/mL anti-uPAR84-95 (PRIMM), 2 μg/mL anti-α-tubulin (Cell Signaling) Abs or 10 nM RI-3, and allowed to adhere for 2 h at 37 °C, 5% CO2. […] At the end of the assay, adherent cells were removed with 0.05% trypsin, and counted. The number of adherent cells was expressed as a percentage of the basal cell adhesion (CTRL). The experiments were performed at least three times in triplicate.

In test [6] the test system is FPR1. The settings on record: 100 nM peptide, 30 min at 37 °C; ref [37], [38]; cited from earlier work.
Another test relates to EOC cells. Kind of test: EOC cell adhesion to and crossing of mesothelial cell monolayers (summary statement). It is filed as cell-based, human. The conditions noted are these: EOC cells exposed to RI-3 or desensitized with an excess of SRSRY. As for the experimental part:
HPMCs (1 × 10^5 cells/well) suspended in growth medium, were seeded in 24-well plates and allowed to adhere for about 20 h until they form a confluent monolayer, prior to seeding GFP-tagged EOC cells suspended in growth medium plus diluents or 10 nM RI-3. At the indicated times, plates were accurately washed with PBS and cell-associated fluorescence was assessed by a fluorescence plate reader a fluorescence plate reader (Victor 3, Perkin Elmer), using 485 nm excitation and 535 nm emission filters. The experiments were performed three times in triplicate.
HPMCs (5 × 10^3 cells/well) suspended in growth medium, were seeded in E-16-well plates and allow to adhere for 18–20 h until they form a confluent monolayer, prior to seeding EOC cells (2 × 10^4 cells/well) in growth medium plus/minus 10 nM RI-3. When HPMCs are challenged with invading cells, there is a drop in electrical resistance within 2–4 h which is monitored in real-time as the Cell Index changes due to the rupture of mesothelium. The experiments were performed three times in quadruplicate.

Consider six substances from publication PMC6839174, “Targeting the Formyl Peptide Receptor type 1 to prevent the adhesion of ovarian cancer cells onto mesothelium and subsequent invasion” (Journal of Experimental & Clinical Cancer Research : CR, 2019).

Non-standard residues stand in square brackets, D forms with d. No end group written: not given here. *: point of attachment. Nle = CCCC[C@H](N)C(=O)O; For = O=C*

With “Ac-(D)-Tyr-(D)-Arg-Aib-(D)-Arg-Ahx-Lys (N^ɛ-FITC)-NH2 [FITC-RI-3, fluorescein-conjugate of RI-3]”, in the test with FPR1 [1] (primary EOC cells (patient #5), 10 nM FITC-RI-3 in PBS, 60 min at 4 °C, fluorescence), the “binding of FITC-RI-3 to EOC cell surface” value is “specific, saturable RI-3 uptake on EOC cell surface”. The FPR1 internalization entry in the test on FPR1 [2] is listed as “little or no internalization”. Moreover, in the test on cell migration, the “FPR1 binding and inhibition of cell migration” value was “binding FPR1 and inhibiting cell migration like the non-fluorescent peptide”.

In the case of “For-[Nle]LF[Nle]YK [FITC-fMLF, fluorescein conjugate hexapeptide Formyl-Nle-Leu-Phe-Nle-Tyr-Lys, reference compound]”, the FPR1 internalization result in the test with FPR1 [2] is on record as “caused FPR1 internalization”.

“uPAR84–95: The domain boundary between DI-DII (uPAR84–95 sequence) (AVTYSRSRYLEC; UniProt Q03405 106-117, looked up, fragment)”: the “regulation of cell migration and ECM attachment” value in [3] was “potent regulators of cell migration and ECM attachment”. Besides, the “FPR1 interaction activating the vitronectin receptor” value in the test on vitronectin receptor is “internalizes and activates the vitronectin receptor”.

Turning to ARARY [control peptide ARARY], in the test with SKOV-3 cells [4], the “adhesion onto Vn in real time after desensitization” value (“adhesion onto Vn in real time” below) is “ineffective”.

On to “N-Formyl-L-methionyl-L-leucyl-L-phenylalanine [fMLF]”, for which, in the test on SKOV-3 cells [5], the “cell adhesion onto Coll, Fn or Lm after desensitization” value is recorded as “not onto Coll, Fn or Lm” and the “cell adhesion onto Vn after desensitization” value is on record as “lose the ability to adhere onto Vn”. Further, in the test with SKOV-3 cells [4], the “adhesion onto Vn in real time” value is reported as “abrogates cell capability to adhere onto Vn”. In the test on FPR1 [1], the “prevention of FITC-RI-3 binding by unlabeled peptide” value is recorded as “prevented”. Moreover, the “availability of FPR1 on cell surface after desensitization” value with FPR1 [6] is “unavailability of FPR1 on cell surface”.

In the case of “Ser-Arg-Ser-Arg-Tyr [SRSRY, synthetic shorter pentapeptide uPAR88–92]”, in the test on SKOV-3 cells [5], the “cell adhesion onto Coll, Fn or Lm after desensitization” value is “not onto Coll, Fn or Lm” and the “cell adhesion onto Vn after desensitization” value was “lose the ability to adhere onto Vn”. Besides, the “adhesion onto Vn in real time” value in the test on SKOV-3 cells [4] is on record as “abrogates cell capability to adhere onto Vn”. Also, the “prevention of FITC-RI-3 binding by unlabeled peptide” value with FPR1 [1] is listed as “prevented”. Also, the “ability to cross mesothelial cell monolayers (abstract)” value in the test on EOC cells is on record as “losing the ability to cross them”. Besides, in test [3], the “regulation of cell migration and ECM attachment” value was “potent regulators of cell migration and ECM attachment”. Besides, the “FPR1 interaction activating the vitronectin receptor” value in the test with vitronectin receptor was “internalizes and activates the vitronectin receptor”. The “availability of FPR1 on cell surface after desensitization” value in the test with FPR1 [6] is “unavailability of FPR1 on cell surface”.
